# Experimental data taken from patent US4083947A, “Organ visualization” (The Radiochemical Centre Limited, priority 1975, dated 1978).
# Where two headings read alike, the source gives them in different places.
# Assays:
# [1] = Tissue distribution of selenium-75-labelled sterols in rats, sixth day post-injection; type: in vivo, rats of the C.F.Y. strain; conditions: tail vein, dose: 1, 7: 40 μCi, 6: 50 μCi, 3: 30 μCi, 4: 1.5 μCi, 5: 10 μCi, 8: 6.3 μCi; for % dose kg./g. in Ovaries: female rats; for % dose kg./g. in Adrenals / % dose kg./g. in Blood / % dose kg./g. in Kidneys / % dose kg./g. in Liver / % dose kg./g. in Muscle: male and female rats; for % dose kg./g. in Testes: male rats; for Concentration Ratio; Adrenals: Kidneys / Concentration Ratio; Adrenals: Liver / Concentration Ratio; Adrenals: Muscle / Concentration Ratio; Adrenals: Ovaries / Concentration Ratio; Adrenals: Testes / Concentration Ratio; Adrenals: Blood: rats; for Concentration Ratio; Adrenals: Blood: 8640 min
# Description: The tissue distribution and target to non-target concentration ratios for seven compounds were studied in male and female rats (150-180 g) of the C.F.Y. strain. Each compound (in a volume of 0.3ml) was injected via the tail vein into two male and two female rats. The animals were then housed in separate metabolism cages prior to sacrifice and dissecting on the sixth day post-injection.
# [2] = cited from earlier work
# [3] = cited from earlier work; remark: listed apart in the source
# [4] = Adrenal scanning/visualization in patients, comparison of 75Se compound with 19-iodocholesterol-131I; type: in vivo, humans
# Description: (§1) Two patients with Cushing Syndrome were injected intravenously with 500μCi of 6β-methylselenomethyl-19-norcholest-5(10)-en-3β-ol-^75 Se formulated in normal saline stabilized with polysorbate. Repeated gamma camera scans and whole body-, urine- and blood measurements were made during a period of two weeks post injection. In one patient a maximum uptake of 17μCi in the left adrenal region was measured, the removed adrenal cortex adenoma, weight 66 g, containing 15μCi of ^75 Se.
# Furthermore, the ^75 Se compound allowed scans to be taken at an earlier point of time after injection than was the case with 19-iodocholesterol-^131 I (2-3 days in contrast to 6-10 days p.i.).
# [5] = Tissue distribution in a female dog, 6th day post-injection; type: in vivo
# Description: 250μCi of 6β-methylselenomethyl-19-norcholest-5(10)-en-[…]-^75 Se was intravenously injected into a female dog (13.7 kg). The dog was housed in a metabolism cage for the daily collection of urine and faeces. On the 6th day post-injection the animal was sacrificed (i.v. sodium pento-barbitone)and tissue and organ samples collected. The weighed samples were then assayed for radioactive content.
# The resulting tissue distribution (expressed in terms of % dose kg/g) is tabulated below: […]
# [6] = Adrenal uptake of 75Se in patients with Cushing Syndrome (gamma camera scans); type: in vivo, humans
# Description: as §1
# [7] = 250μCi intravenous, female dog, 6th day
# [8] = 250μCi intravenous, female dog, daily collection to 6th day
smiles,measurement,setting,value
"CC(C)CCC[C@@H](C)[C@H]1CC[C@H]2[C@@H]3C[C@@H](C[75Se]Cc4ccccc4)C4=C(CC[C@H](O)C4)[C@H]3CC[C@]12C [Example 5, 6β-benzylselenomethyl-19-norcholest-5(10)-en-3β-ol-^75 Se]",% dose kg./g. in Ovaries,[1],2.425 % dose kg./g.
same,% dose kg./g. in Adrenals,[1],5.286 % dose kg./g.
same,% dose kg./g. in Blood,[1],0.042 % dose kg./g.
same,% dose kg./g. in Kidneys,[1],0.083 % dose kg./g.
same,% dose kg./g. in Liver,[1],0.393 % dose kg./g.
same,% dose kg./g. in Muscle,[1],0.015 % dose kg./g.
same,% dose kg./g. in Testes,[1],0.042 % dose kg./g.
same,Concentration Ratio; Adrenals: Kidneys,[1],63.4
same,Concentration Ratio; Adrenals: Liver,[1],13.4
same,Concentration Ratio; Adrenals: Muscle,[1],355.3
same,Concentration Ratio; Adrenals: Ovaries,[1],2.6
same,Concentration Ratio; Adrenals: Testes,[1],101.4
same,Concentration Ratio; Adrenals: Blood,[1],126.3
"CC(C)CCC[C@@H](C)[C@H]1CC[C@H]2[C@@H]3C[C@@H](C[75Se]C4CCCCC4)C4=C(CC[C@H](O)C4)[C@H]3CC[C@]12C [Example 4, 6β-cyclohexylselenomethyl-19-norcholest-5(10)-en-3β-ol-^75 Se]",% dose kg./g. in Ovaries,[1],2.568 % dose kg./g.
same,% dose kg./g. in Adrenals,[1],3.609 % dose kg./g.
same,% dose kg./g. in Blood,[1],0.026 % dose kg./g.
same,% dose kg./g. in Kidneys,[1],0.038 % dose kg./g.
same,% dose kg./g. in Liver,[1],0.148 % dose kg./g.
same,% dose kg./g. in Muscle,[1],0.012 % dose kg./g.
same,% dose kg./g. in Testes,[1],0.034 % dose kg./g.
same,Concentration Ratio; Adrenals: Kidneys,[1],75.1
same,Concentration Ratio; Adrenals: Liver,[1],24.9
same,Concentration Ratio; Adrenals: Muscle,[1],303.1
same,Concentration Ratio; Adrenals: Ovaries,[1],1.6
same,Concentration Ratio; Adrenals: Testes,[1],89.8
same,Concentration Ratio; Adrenals: Blood,[1],137.4
C[75Se]C[C@]12CC[C@H](O)CC1=CC[C@@H]1[C@@H]2CC[C@]2(C)[C@@H]([C@H](C)CCCC(C)C)CC[C@@H]12 [19-methylselenocholesterol],concentration in / uptake into human adrenal glands,[2],poor
same,concentration in the adrenal cortex,[2]; human,appears not to be concentrated in the adrenal cortex
same,uptake into pheochromocytomas of human adrenal medullary tissue,[2]; some instances,some instances have been cited of its uptake into pheochromocytomas
same,concentration in rat adrenal tissue,[3],concentrated strongly in rat adrenal tissue
"CCCC[75Se]C[C@@H]1C[C@@H]2[C@H](CC[C@]3(C)[C@@H]([C@H](C)CCCC(C)C)CC[C@@H]23)C2=C1C[C@@H](O)CC2 [Example 3, 6β-butylselenomethyl-19-norcholest-5(10)-en-3β-ol-^75 Se]",% dose kg./g. in Ovaries,[1],2.553 % dose kg./g.
same,% dose kg./g. in Adrenals,[1],7.563 % dose kg./g.
same,% dose kg./g. in Blood,[1],0.009 % dose kg./g.
same,% dose kg./g. in Kidneys,[1],0.052 % dose kg./g.
same,% dose kg./g. in Liver,[1],0.096 % dose kg./g.
same,% dose kg./g. in Muscle,[1],0.012 % dose kg./g.
same,% dose kg./g. in Testes,[1],0.023 % dose kg./g.
same,Concentration Ratio; Adrenals: Kidneys,[1],144.8
same,Concentration Ratio; Adrenals: Liver,[1],79.0
same,Concentration Ratio; Adrenals: Muscle,[1],809.6
same,Concentration Ratio; Adrenals: Ovaries,[1],4.0
same,Concentration Ratio; Adrenals: Testes,[1],268.3
same,Concentration Ratio; Adrenals: Blood,[1],581.9
"C[75Se]C[C@@H]1C[C@@H]2[C@H](CC[C@]3(C)[C@@H]([C@H](C)CCCC(C)C)CC[C@@H]23)C2=C1C[C@@H](OC(C)=O)CC2 [Example 6, 6β-methylselenomethyl-19-norcholest-5(10)-en-3β-ol-acetate-^75 Se]",% dose kg./g. in Ovaries,[1],3.232 % dose kg./g.
same,% dose kg./g. in Adrenals,[1],12.561 % dose kg./g.
same,% dose kg./g. in Blood,[1],0.025 % dose kg./g.
same,% dose kg./g. in Kidneys,[1],0.108 % dose kg./g.
same,% dose kg./g. in Liver,[1],0.074 % dose kg./g.
same,% dose kg./g. in Muscle,[1],0.022 % dose kg./g.
same,% dose kg./g. in Testes,[1],0.041 % dose kg./g.
same,Concentration Ratio; Adrenals: Kidneys,[1],116.0
same,Concentration Ratio; Adrenals: Liver,[1],161.1
same,Concentration Ratio; Adrenals: Muscle,[1],536.3
same,Concentration Ratio; Adrenals: Ovaries,[1],5.7
same,Concentration Ratio; Adrenals: Testes,[1],166.4
same,Concentration Ratio; Adrenals: Blood,[1],469.2
"C[75Se]C[C@@H]1C[C@@H]2[C@H](CC[C@]3(C)[C@@H]([C@H](C)CCCC(C)C)CC[C@@H]23)C2=C1C[C@@H](O)CC2 [Example 1, 6β-methylselenomethyl-19-norcholest-5(10)-en-3β-ol-^75 Se]",quality of adrenal scans compared with 19-iodocholesterol-131I,"[4]; comparable cases with adrenal cortex adenomas or hyperplasia, smaller dose",equally good adrenal scans
same,visualization of adrenal glands and detection of adrenal cortex adenomas,[4]; humans,enabling their visualization and the detection of adrenal cortex adenomas
same,time after injection at which scans could be taken,[4]; p.i.,2 to 3 days
same,dose giving equally good adrenal scans,"[4]; per kg body weight, adrenal cortex adenomas or hyperplasia",7 μCi/kg
same,"% dose kg/g, Adrenals",[5]; [7],7.240 % dose kg/g
same,"% dose kg/g, Bile",[5]; [7],0.485 % dose kg/g
same,"% dose kg/g, Blood",[5]; [7],0.066 % dose kg/g
same,"% dose kg/g, Kidneys",[5]; [7],0.175 % dose kg/g
same,"% dose kg/g, Liver",[5]; [7],0.143 % dose kg/g
same,"% dose kg/g, Lungs",[5]; [7],0.164 % dose kg/g
same,"% dose kg/g, Muscle",[5]; [7],0.042 % dose kg/g
same,"% dose kg/g, Ovaries",[5]; [7],1.571 % dose kg/g
same,"% dose kg/g, Spleen",[5]; [7],0.083 % dose kg/g
same,"% dose kg/g, adrenal cortex",[5]; [7],9.925 % dose kg/g
same,"% of dose, Adrenals",[5]; [7],0.622 % of dose
same,"% of dose, Blood",[5]; [7],5.989 % of dose
same,"% of dose, Kidneys",[5]; [7],0.712 % of dose
same,"% of dose, Liver",[5]; [7],3.894 % of dose
same,"% of dose, Lungs",[5]; [7],1.136 % of dose
same,"% of dose, Ovaries",[5]; [7],0.303 % of dose
same,"% of dose, Spleen",[5]; [7],0.528 % of dose
same,"% of dose, Total Faeces",[5]; [8],27.691 % of dose
same,"% of dose, Total Urine",[5]; [8],1.953 % of dose
same,concentration in the adrenal cortex,[5]; dogs,concentrates in the adrenal cortex
same,75Se uptake per gram of tissue in the adrenal adenoma,[6]; compared with 19-iodocholesterol-131I in five other adrenal cortex adenomas,higher than that of 19-iodocholesterol-^131 I
same,concentration in the adrenal glands,[6]; humans,concentrate in the adrenal glands of humans
same,maximum uptake in the left adrenal region,"[6]; one patient with Cushing Syndrome, 500μCi intravenous, two weeks of scans",17 μCi
same,75Se uptake in each of both adrenal regions,"[6]; other patient with Cushing Syndrome, 500μCi intravenous",3 μCi
same,75Se contained in removed adrenal cortex adenoma,"[6]; same patient, adenoma weight 66 g, 500μCi intravenous",15 μCi
same,% dose kg./g. in Ovaries,[1],2.356 % dose kg./g.
same,% dose kg./g. in Adrenals,[1],9.885 % dose kg./g.
same,% dose kg./g. in Blood,[1],0.024 % dose kg./g.
same,% dose kg./g. in Kidneys,[1],0.116 % dose kg./g.
same,% dose kg./g. in Liver,[1],0.054 % dose kg./g.
same,% dose kg./g. in Muscle,[1],0.023 % dose kg./g.
same,% dose kg./g. in Testes,[1],0.044 % dose kg./g.
same,Concentration Ratio; Adrenals: Kidneys,[1],91.9
same,Concentration Ratio; Adrenals: Liver,[1],163.9
same,Concentration Ratio; Adrenals: Muscle,[1],436.7
same,Concentration Ratio; Adrenals: Ovaries,[1],4.5
same,Concentration Ratio; Adrenals: Testes,[1],211.9
same,Concentration Ratio; Adrenals: Blood,[1],433.1
"CC(C)CCC[C@@H](C)[C@H]1CC[C@H]2[C@@H]3C[C@@H](C[75Se]c4ccccc4)C4=C(CC[C@H](O)C4)[C@H]3CC[C@]12C [Example 8, 6β-phenylselenomethyl-19-norcholest-5(10)-en-3β-ol-^75 Se]",% dose kg./g. in Ovaries,[1],2.578 % dose kg./g.
same,% dose kg./g. in Adrenals,[1],5.934 % dose kg./g.
same,% dose kg./g. in Blood,[1],0.021 % dose kg./g.
same,% dose kg./g. in Kidneys,[1],0.062 % dose kg./g.
same,% dose kg./g. in Liver,[1],0.144 % dose kg./g.
same,% dose kg./g. in Muscle,[1],0.015 % dose kg./g.
same,% dose kg./g. in Testes,[1],0.039 % dose kg./g.
same,Concentration Ratio; Adrenals: Kidneys,[1],109.1
same,Concentration Ratio; Adrenals: Liver,[1],40.0
same,Concentration Ratio; Adrenals: Muscle,[1],418.9
same,Concentration Ratio; Adrenals: Ovaries,[1],3.62
same,Concentration Ratio; Adrenals: Testes,[1],171.2
same,Concentration Ratio; Adrenals: Blood,[1],285.8
"CC(C)CCC[C@@H](C)[C@H]1CC[C@H]2[C@@H]3C[C@@H](C[75Se](C)=O)C4=C(CC[C@H](O)C4)[C@H]3CC[C@]12C (stereo partly drawn) [Example 7, 6β-methylselenomethyl-19-norcholest-5(10)-en-3β-olselenoxide-^75 Se]",% dose kg./g. in Ovaries,[1],0.817 % dose kg./g.
same,% dose kg./g. in Adrenals,[1],4.284 % dose kg./g.
same,% dose kg./g. in Blood,[1],0.022 % dose kg./g.
same,% dose kg./g. in Kidneys,[1],0.087 % dose kg./g.
same,% dose kg./g. in Liver,[1],0.091 % dose kg./g.
same,% dose kg./g. in Muscle,[1],0.016 % dose kg./g.
same,% dose kg./g. in Testes,[1],0.046 % dose kg./g.
same,Concentration Ratio; Adrenals: Kidneys,[1],49.5
same,Concentration Ratio; Adrenals: Liver,[1],48.3
same,Concentration Ratio; Adrenals: Muscle,[1],274
same,Concentration Ratio; Adrenals: Ovaries,[1],5.1
same,Concentration Ratio; Adrenals: Testes,[1],95.2
same,Concentration Ratio; Adrenals: Blood,[1],202
